Source: patent US20090209620A1, “Direct Reversal Of The Suppressive Function Of CD4+Regulatory T Cells Via Toll-Like Receptor 8 Signaling” (priority 2005, published 2009)
In the oligonucleotide strings, read from the 5' end, every base follows the letter of its sugar. An asterisk marks phosphorothioate; unmarked linkages are phosphodiester. Other units and linkages are bracketed, terminal groups are in braces. A string of capitals states the bases alone. d = 2'-deoxy (DNA)

What was measured:
Treg102 cells = test: Proliferation and cytotoxicity of CFSE-labeled Treg cells (FACS); type: cell-based, human; conditions: 3 days
Description: The expression of CD4, CD25 and GITR on Treg cells was determined by FACS analysis after staining with specific antibodies (purchased from R&D Systems and BD Biosciences). To isolate naturally occurring CD4^+ CD25^+ Treg cells, CD4^+ T cells were stained with anti-CD4 and anti-CD25 antibodies conjugated to either PE or FITC. After washing, the cells were sorted by FACSARIA into CD4^+ CD25^+ and CD4^+ CD25^− T cell populations. For experiments with carboxyfluorescein diacetate succinimidyl ester (CFSE)-labeled cells, näive CD4^+ T cells or Treg cells ([…]) were stained with CFSE (4.5 uM) from Molecular Probes at 37° C. for 15 min. After several washes, the labeled cells were cultured in RPMI 1640 containing 10% human AB serum and IL-2 (300 IU/ml). To determine suppression of cell division by Treg cells, unlabeled Treg cells were added to CFSE-labeled näive T cells at an 1:1 ratio in 24-well plates precoated with OKT3 (2 ug/ml) in the presence or absence of CpG-A or Poly-G2 (3 ug/ml). After 3 days in culture, the cells were analyzed by FACS gating on the CFSE-labeled cells.
FIG. 5. […] After 3 days of culture, the proliferative profile was determined by FACS analysis. […]

Treg164 cells = test: Reversibility of siRNA-transduced Treg164 cells by Poly-G10 (functional proliferation assay); type: cell-based, human
Excerpt: Several siRNA sequences (19 nucleotides) for each gene were selected with use of computer-assisted programs. Oligonucleotides containing a siRNA sequence, 8 nucleotide spacers, and a polyT terminator sequence were annealed and then cloned into the HapI and XhoI sites of GFP-expressing pLentilox3.7 vector using methods well known in the art (See, e.g., D. A. Rubinson et al., Nat. Genet. 33, 401-6 (2003)). siRNA was under the control of a U6 promoter. The following DNA sequences used to construct siRNAs for IRAK4, MyD88, and TLR7, 8 and 9, were effective in silencing their corresponding genes:
5×10^6 293T cells were pre-seeded onto 100-mm dishes and transfected with 12 μg siRNA lentiviral DNA, 12 μg VSV-G plasmid DNA and 12 μg packaging viral CMV delta 8.9 plasmid, using Lipofectamine 2000. After the addition of fresh culture medium 8 h later, the cells were cultured for an additional 2-3 days. Viral supernatants were harvested, passed through a […] filter and concentrated by ultracentrifugation at 20,000 rpm for 2 h. Virus pellets were resuspended in a small volume of medium, and viral titers were determined by infecting 293T cells with serially diluted doses of virus. […] Transduction efficiency was analyzed at 3 or 4 days post-transduction, and the cells were sorted into GFP^+and GFP^−cells with a FACS ARIA sorter. […]

Substance	number of Treg cells (cytotoxicity) (Treg102 cells; presence or absence of CpG-A 3 μg/ml)	proliferation of CFSE-labeled Treg cells (Treg102 cells; with naive T cells, OKT3, IL-2, CpG-A 3 μg/ml)	reversibility of suppression by Poly-G10 (Treg164 cells; IRAK4 siRNA-transduced (GFP+) Treg164 cells)	reversibility of suppression by Poly-G10 (Treg164 cells; MyD88 siRNA-transduced (GFP+) Treg164 cells)
G* GGGGACGATCGTCG* G*G*G*G*G [CpG-A]	did not change	do not proliferate		
Poly-G10: guanosine oligonucleotide with protected phosphorothioate backbone (DNA dG*dG*dG*dG*dG*dG*dG*dG*dG*dG)			lost the capacity to reverse their suppressive function	lost the capacity to reverse their suppressive function
